# Reference: US8980916B2, “Factor IXa inhibitors” (Merck Sharp & Dohme Corp., priority 2011, dated 2015)
# pIC50: −log10 of the molar value.
# Target: human Factor IXa (Homo sapiens (Human), UniProt P00740)
# Experiment: Factor IXa enzyme assay (SPECTROFLUOR FIXa fluorogenic substrate)
# Type: biochemical
# Conditions: human Factor IXa 2.0 μg/ml, SPECTROFLUOR FIXa 100 μM, 60 minutes at room temperature, pH 8.0
# Experimental: Inhibitory activity against Factor IXa was tested using the substrate SPECTROFLUOR FIXa (American Diagnostica Inc.; 500 West Avenue, Stamford, Conn. 06902 USA; Pr. No. 299F) and human Factor IXa (American Diagnostica Inc.; Pr. No. 449b). Test substances dissolved in buffer A (50 mM α,α,α-tris(hydroxymethyl)methylamine (Tris), 100 mM NaCl, 5 mM CaCl2, 15% (v/v) ethylene glycol, pH 8.0) were mixed with Factor IXa (2.0 μg/ml final concentration). The enzyme reaction was started by addition of SPECTROFLUOR FIXa (100 μM final concentration). After incubation for 60 minutes at room temperature, the reaction was stopped by the addition of 20% (v/v) acetic acid solution, and then fluorescence value measured (Excitation Wavelength: 355 nm, Emission Wavelength; 460 nm) in a microtiter plate reader (ARVO 1420 Multilabel Counter; PerkinElmer).
# IC50 was calculated from a dilution series of the test substance with the aid of the software, Symix Assay Explorer (Symyx Technologies, Inc.).
# Chain of human Factor IXa (P00740 227-461): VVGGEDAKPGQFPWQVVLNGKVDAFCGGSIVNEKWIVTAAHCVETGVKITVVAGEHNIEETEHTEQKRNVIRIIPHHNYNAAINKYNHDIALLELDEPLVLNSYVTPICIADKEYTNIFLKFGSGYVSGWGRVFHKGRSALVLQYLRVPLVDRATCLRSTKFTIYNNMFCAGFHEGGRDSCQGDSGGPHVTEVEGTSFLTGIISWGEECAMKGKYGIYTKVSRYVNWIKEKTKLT
# Chain of human Factor IXa (P00740 47-191 partner): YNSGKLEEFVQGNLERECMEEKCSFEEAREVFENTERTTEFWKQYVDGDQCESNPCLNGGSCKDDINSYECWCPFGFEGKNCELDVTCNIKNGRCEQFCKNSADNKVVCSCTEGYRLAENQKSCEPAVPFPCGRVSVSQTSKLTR
row,pIC50,Structure (SMILES)
1,7.27,"CC(C)(C)c1ccc(-n2cccc(C(O)C(=O)Nc3ccc4c(N)nccc4c3)c2=O)cc1 (racemic) [Example 6, (±)-N-(1-aminoisoquinolin-6-yl)-2-(1-(4-tert-butylphenyl)-2-oxo-1,2-dihydropyridin-3-yl)-2-hydroxyacetamide]"
2,6.00,"CC(C)(C)c1ccc(-n2cccc(C(O)C(=O)Nc3ccc4c(N)noc4c3)c2=O)cc1 (racemic) [Example 5, (±)-N-(3-aminobenzo[d]isoxazol-6-yl)-2-(1-(4-tert-butylphenyl)-2-oxo-1,2-dihydropyridin-3-yl)-2-hydroxyacetamide]"
